The target of this experiment is T1, human Edg-1 receptor (Homo sapiens, UniProt P21453).
T1 construct: FLAG (N); expressed in transfected cells; membrane preparation
The experiment is described as follows: GTP-γ-S assay using human Edg-1 receptors (SPA, CHO Flp-In cell membrane preparation). The experiment is classed as biochemical. Conditions: test compound at 10 μM; high control 10 μM S1P regarded as 100% activation; background-corrected; triplicate; read-out: % Activation (Edg-1 receptor activation in percent of the activation by 10 μM S1P). From the text:
Determination of the Pharmacological Activity A) GTP-γ-S Assay Using Human Edg-1 Receptors
In order to determine the Edg-1 receptor activation by the compounds of the invention, a GTP-γ-S (guanosine 5′-[γ-thio]triphosphate) assay for G-protein coupled receptor binding based on the scintillation proximity assay principle was used, employing a cell membrane preparation from a CHO Flp-In cell line which constitutively overexpresses the human Edg-1 receptor.
The Flp-In™ expression system (Invitrogen, cat. no. K6010-01) allows the generation of stable mammalian cell lines into which the gene of interest has been integrated through homologous recombination at a specific genomic location called Flp Recombination Target (FRT) site by means of a Flp recombinase encoded by the pOG44 expression plasmid. The integration of the pcDNA5/FRT expression construct into the Flp-In host cell line genome results in the transcription of the gene of interest. The stably transfected cells become hygromycin-resistant.
One day prior to transfection, 200 000 Flp-In-CHO cells were seeded in Ham F-12 medium (Invitrogen, cat. no. 31765) supplemented with 10% fetal calf serum (FCS; Perbio Science, cat. no. SH30068.03) in a 6-well plate and incubated at 37° C./5% CO2 overnight. Using the FuGENE® 6 transfection reagent (Roche, cat. no. 11988387001), cells were cotransfected with the Flp recombinase expression plasmid pOG44 and a modified plasmid additionally containing the edg-1 gene (accession no. NM_001400) termed as pcDNA5-FRT-TO_nFLAG_DEST-EDG-1 with a 9:1 ratio. To obtain the modified pcDNA5-FRT-TO_nFLAG_DEST plasmid, the Invitrogen plasmid pcDNA5/FRT/TO (Invitrogen, cat. no. V6520-20) was adapted to the Gateway® (Invitrogen) cloning system by inserting a Gateway cassette containing attR recombination sites flanking a ccdB gene and a chloramphenicol-resistance gene (Gateway conversion system, Invitrogen, cat. no. 11828-029). In addition a FLAG tag epitope was added before the 5′ att recombination site to allow recombinant expression of N-terminally FLAG-tagged proteins.
For the transfection of one well, 1.08 μg of pOG44 and 0.12 μg of pcDNA5-FRT-TO_nFLAG_DEST-EDG-1 were mixed with 100 μl of serum-free Ham F-12 medium containing 6 μl of FuGENE® 6 transfection reagent. After 20 min of incubation, the transfection reagent/DNA complex was distributed dropwise on the cells. The cells were incubated for 24 h at 37° C. Then the cells from 3 wells each were transferred to a T75 flask (Greiner Cellstar®, cat. no. 658175) containing Ham F-12 medium supplemented with 10% of FCS but without antibiotic and were incubated another 24 h. 48 h after transfection, the medium was replaced by selection medium (Ham F-12 supplemented with 10% of FCS and 300 μg/ml of hygromycin B (Invitrogen, cat. no. 10687-010)). The medium was exchanged every 2 to 3 days until a resistant population of cells had grown. […] After 2 weeks of selection, the cells were transferred into T175 flasks (Greiner Cellstar®, cat. no. 660175) and cultivated for batch production. Cells were harvested from the culture flasks by short treatment (2 to 5 min) with Accutase (PAA, cat. no. L11-007), resuspended in selection medium (see above) and centrifuged at 200×g for 5 min. Cells were resuspended in a mixture of 90% of FCS and 10% of dimethylsulfoxide and stored frozen in liquid nitrogen.
A membrane preparation was obtained by standard methods from the afore-described CHO Flp-In cell line constitutively overexpressing the human Edg-1 receptor. Briefly, the cryopreserved cells were taken in culture and grown until confluency in T175 cell culture flasks (Becton Dickinson, cat. no. 35 5001). […]

T1 sequence (P21453 whole entry): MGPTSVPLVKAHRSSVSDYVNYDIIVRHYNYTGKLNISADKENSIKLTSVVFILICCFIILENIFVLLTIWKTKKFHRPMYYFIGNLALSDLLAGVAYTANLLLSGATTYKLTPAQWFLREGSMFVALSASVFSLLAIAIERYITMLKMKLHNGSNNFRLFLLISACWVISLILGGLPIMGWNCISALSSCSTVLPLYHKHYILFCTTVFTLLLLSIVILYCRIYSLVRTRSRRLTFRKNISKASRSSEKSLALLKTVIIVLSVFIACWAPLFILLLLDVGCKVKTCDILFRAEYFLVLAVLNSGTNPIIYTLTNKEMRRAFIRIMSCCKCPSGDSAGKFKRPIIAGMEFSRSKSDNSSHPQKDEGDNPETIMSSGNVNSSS

For the compound `CCCOc1nc(Oc2ccccn2)nc2oc(-c3cccc(C)c3)nc12` [Example 76, 7-propoxy-5-(pyridin-2-yloxy)-2-(3-methyl-phenyl)-oxazolo[5,4-d]pyrimidine], the activation at 10 µM stood at 81%. As for `CCCOc1nc(Oc2c(C)cccc2Cl)nc2oc(-c3cccc(C)c3)nc12` [Example 91, 5-(2-chloro-6-methyl-phenoxy)-7-propoxy-2-(3-methyl-phenyl)-oxazolo[5,4-d]pyrimidine], the figure is 105%; as for `CCOc1nc(Oc2ccccc2F)nc2oc(-c3cc(F)ccc3Cl)nc12` [Example 30, 2-(2-chloro-5-fluoro-phenyl)-7-ethoxy-5-(2-fluoro-phenoxy)-oxazolo[5,4-d]pyrimidine], 134%. As for `CCCOc1nc(Oc2ccccc2F)nc2oc(-c3cccc(C)c3)nc12` [Example 103, 5-(2-fluoro-phenoxy)-7-propoxy-2-(3-methyl-phenyl)-oxazolo[5,4-d]pyrimidine], the figure is 109%; as for `CCCOc1nc(OC2CCC(C)CC2)nc2oc(-c3cc(F)ccc3Cl)nc12` (stereo not drawn) [Example 85, 2-(2-chloro-5-fluoro-phenyl)-5-(4-methyl-cyclohexyloxy)-7-propoxy-oxazolo[5,4-d]pyrimidine], 67%. Then `CCCOc1nc(Oc2ccc(C)nn2)nc2oc(-c3cccc(F)c3)nc12` [Example 18, 2-(3-fluoro-phenyl)-5-(6-methyl-pyridazin-3-yloxy)-7-propoxy-oxazolo[5,4-d]pyrimidine], with 42%. In the case of `CCCOc1nc(Oc2cc(Cl)ccc2C)nc2oc(-c3cccc(C)c3)nc12` [Example 115, 5-(5-chloro-2-methyl-phenoxy)-7-propoxy-2-(3-methyl-phenyl)-oxazolo[5,4-d]pyrimidine], the activation at 10 µM stood at 96%. For `CCCOc1nc(Oc2ccc(OC)cc2F)nc2oc(-c3cccc(C)c3)nc12` [Example 75, 5-(2-fluoro-4-methoxy-phenoxy)-7-propoxy-2-(3-methyl-phenyl)-oxazolo[5,4-d]pyrimidine], the activation at 10 µM turned out to be 72%. Then `CCOc1nc(Oc2cccc(S(N)(=O)=O)c2)nc2oc(-c3cc(F)ccc3Cl)nc12` [Example 21, 3-[2-(2-chloro-5-fluoro-phenyl)-7-ethoxy-oxazolo[5,4-d]pyrimidin-5-yloxy]-benzenesulfonamide], with 81%; and `CCCOc1nc(Oc2cccc3c2OC(C)(C)C3)nc2oc(-c3cc(F)ccc3Cl)nc12` [Example 84, 2-(2-chloro-5-fluoro-phenyl)-5-(2,2-dimethyl-2,3-dihydro-benzofuran-7-yloxy)-7-propoxy-oxazolo[5,4-d]pyrimidine], with 60%.

Regarding `CCOc1nc(Oc2cccc(S(N)(=O)=O)c2)nc2oc(-c3cccc(C)c3)nc12` [Example 22, 3-(7-ethoxy-2-(3-methyl-phenyl)-oxazolo[5,4-d]pyrimidin-5-yloxy)-benzenesulfonamide], the activation at 10 µM was determined as 100%.

On to `CCCOc1nc(Oc2ccccc2F)nc2oc(-c3cc(C)c(OC)c(C)c3)nc12` [Example 5, 5-(2-Fluoro-phenoxy)-2-(4-methoxy-3,5-dimethyl-phenyl)-7-propoxy-oxazolo[5,4-d]pyrimidine], for which the activation at 10 µM was found to be 111%.

Turning to `O=S1(=O)CCC(Sc2nc(OCC3CC3)c3nc(-c4cc(F)ccc4Cl)oc3n2)C1` (stereo not drawn) [Example 13, 2-(2-chloro-5-fluoro-phenyl)-7-cyclopropylmethoxy-5-(1,1-dioxo-tetrahydro-1lambda6-thiophen-3-ylsulfanyl)-oxazolo[5,4-d]pyrimidine], the activation at 10 µM stood at 104%. Then `Clc1ccc(-c2nc3c(OCC4CC4)nc(Oc4cccnc4)nc3o2)cc1Cl` [Example 106, 7-cyclopropylmethoxy-2-(3,4-dichloro-phenyl)-5-(pyridin-3-yloxy)-oxazolo[5,4-d]pyrimidine], with 117%.

Take `CCCOc1nc(Oc2ccccc2C(C)C)nc2oc(-c3cccc(C)c3)nc12` [Example 124, 5-(2-isopropyl-phenoxy)-7-propoxy-2-(3-methyl-phenyl)-oxazolo[5,4-d]pyrimidine]: the activation at 10 µM came out at 112%. Turning to `CCCOc1nc(Oc2cc(F)cc(F)c2)nc2oc(-c3cccc(C)c3)nc12` [Example 127, 5-(3,5-difluoro-phenoxy)-7-propoxy-2-(3-methyl-phenyl)-oxazolo[5,4-d]pyrimidine], the activation at 10 µM amounted to 110%. Then `CCCOc1nc(Oc2cccnc2)nc2oc(-c3ccc(Cl)c(Cl)c3)nc12` [Example 44, 2-(3,4-dichloro-phenyl)-7-propoxy-5-(pyridin-3-yloxy)-oxazolo[5,4-d]pyrimidine], with 94%. As for `CCCOc1nc(Oc2cccc(C(C)(C)C)c2)nc2oc(-c3cccc(C)c3)nc12` [Example 125, 5-(3-tert-butyl-phenoxy)-7-propoxy-2-(3-methyl-phenyl)-oxazolo[5,4-d]pyrimidine], the figure is 61%.

Take `CCCOc1ccccc1Oc1nc(OCCC)c2nc(-c3cccc(C)c3)oc2n1` [Example 146, 7-propoxy-5-(2-propoxy-phenoxy)-2-(3-methyl-phenyl)-oxazolo[5,4-d]pyrimidine]: the activation at 10 µM turned out to be 126%. Then `CCCOc1nc(Oc2cc(Cl)ccc2C)nc2oc(-c3cccc(F)c3)nc12` [Example 67, 5-(5-chloro-2-methyl-phenoxy)-2-(3-fluoro-phenyl)-7-propoxy-oxazolo[5,4-d]pyrimidine], with 84%; and `CCCOc1nc(Oc2cncc(F)c2)nc2oc(-c3cc(F)ccc3Cl)nc12` [Example 72, 2-(2-chloro-5-fluoro-phenyl)-5-(5-fluoro-pyridin-3-yloxy)-7-propoxy-oxazolo[5,4-d]pyrimidine], with 95%; and `CCCOc1nc(Oc2ccc(Cl)c(C)c2)nc2oc(-c3cccc(C)c3)nc12` [Example 140, 5-(4-chloro-3-methyl-phenoxy)-7-propoxy-2-(3-methyl-phenyl)-oxazolo[5,4-d]pyrimidine], with 60%. In the case of `Fc1cncc(Oc2nc(OCC3CC3)c3nc(-c4ccc(Cl)c(Cl)c4)oc3n2)c1` [Example 108, 7-cyclopropylmethoxy-2-(3,4-dichloro-phenyl)-5-(5-fluoro-pyridin-3-yloxy)-oxazolo[5,4-d]pyrimidine], the activation at 10 µM was found to be 98%.

As for `CC1(C)OCC(COc2nc(OCC3CC3)c3nc(-c4cc(F)ccc4Cl)oc3n2)O1` (stereo not drawn) [Example 34, 2-(2-chloro-5-fluoro-phenyl)-7-cyclopropylmethoxy-5-(2,2-dimethyl-[1,3]dioxolan-4-ylmethoxy)-oxazolo[5,4-d]pyrimidine], the activation at 10 µM is 99%. Then `CCCOc1nc(NC2CCOCC2)nc2oc(-c3cc(F)ccc3Cl)nc12` [Example 57, [2-(2-chloro-5-fluoro-phenyl)-7-propoxy-oxazolo[5,4-d]pyrimidin-5-yl]-(tetrahydro-pyran-4-yl)-amine], with 80%. As to `Fc1ccc(Cl)c(-c2nc3c(OCC4CC4)nc(Oc4ccccc4F)nc3o2)c1` [Example 104, 2-(2-chloro-5-fluoro-phenyl)-7-cyclopropylmethoxy-5-(2-fluoro-phenoxy)-oxazolo[5,4-d]pyrimidine], the activation at 10 µM was 117%.

Consider `CCCOc1nc(Oc2c(C)cc(C)cc2C)nc2oc(-c3cccc(C)c3)nc12` [Example 142, 7-propoxy-2-(3-methyl-phenyl)-5-(2,4,6-trimethyl-phenoxy)-oxazolo[5,4-d]pyrimidine], for which the activation at 10 µM is 50%.

For the origin of these results see patent publication US8785439B2, “2,5,7-substituted oxazolopyrimidine derivatives” (Sanofi, priority 2010, dated 2014).
